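Values below derive from 48-hour exposures of cells grown in 96-well plates, with endpoints linearly interpolated between the two concentrations bracketing the appropriate inhibition level. The concentration for full growth arrest is given as TGI.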
System: CCRF-CEM leukemia
Assay: DTP human tumour cell line panel, 48 h

| SMILES | TGI [µM] |
| --- | --- |
| C(=Nc1ccc(-c2nc3ccccc3s2)cc1)c1ccco1 | > 100 |
| O=C1CC(c2ccc([N+](=O)[O-])cc2)C2(C(=O)NC(=S)NC2=O)C(c2ccc([N+](=O)[O-])cc2)C1 (stereo unspecified) | > 100 |

System: SF-268 CNS
Assay: DTP human tumour cell line panel, 48 h

| SMILES | TGI [µM] |
| --- | --- |
| Cc1nc2cc(C(F)(F)F)ccc2[nH]c1=O | > 100 |
| Nc1ncnc2c1ncn2C(=O)NC12CC3CC(CC(C3)C1)C2 | > 100 |
| CSc1c(C(=O)Nc2ccc(C)cc2)c(N)[nH]c(=O)c1C#N | > 100 |
| C(=Nc1ccc(-c2nc3ccccc3s2)cc1)c1ccco1 | > 100 |
| CC(=O)/C(=C/n1c(=S)sc2ccccc21)C(=O)Nc1ccccc1C | > 100 |
| O=C1CC(c2ccc([N+](=O)[O-])cc2)C2(C(=O)NC(=S)NC2=O)C(c2ccc([N+](=O)[O-])cc2)C1 (stereo unspecified) | 45.6 |
| N#CSCc1cccc(Nc2cc(=O)[nH]c(=O)[nH]2)c1 | 78.4 |

System: SK-OV-3 ovarian
Assay: DTP human tumour cell line panel, 48 h

| SMILES | TGI [µM] |
| --- | --- |
| Cc1nc2cc(C(F)(F)F)ccc2[nH]c1=O | > 100 |
| Nc1ncnc2c1ncn2C(=O)NC12CC3CC(CC(C3)C1)C2 | > 100 |
| CSc1c(C(=O)Nc2ccc(C)cc2)c(N)[nH]c(=O)c1C#N | > 100 |
| C(=Nc1ccc(-c2nc3ccccc3s2)cc1)c1ccco1 | > 100 |
| CC(=O)/C(=C/n1c(=S)sc2ccccc21)C(=O)Nc1ccccc1C | > 100 |
| O=C1CC(c2ccc([N+](=O)[O-])cc2)C2(C(=O)NC(=S)NC2=O)C(c2ccc([N+](=O)[O-])cc2)C1 (stereo unspecified) | > 100 |
| N#CSCc1cccc(Nc2cc(=O)[nH]c(=O)[nH]2)c1 | > 100 |

System: T-47D breast
Assay: DTP human tumour cell line panel, 48 h

| SMILES | TGI [µM] |
| --- | --- |
| Cc1nc2cc(C(F)(F)F)ccc2[nH]c1=O | > 100 |
| Nc1ncnc2c1ncn2C(=O)NC12CC3CC(CC(C3)C1)C2 | > 100 |
| CSc1c(C(=O)Nc2ccc(C)cc2)c(N)[nH]c(=O)c1C#N | > 100 |
| C(=Nc1ccc(-c2nc3ccccc3s2)cc1)c1ccco1 | > 100 |
| CC(=O)/C(=C/n1c(=S)sc2ccccc21)C(=O)Nc1ccccc1C | > 100 |
| O=C1CC(c2ccc([N+](=O)[O-])cc2)C2(C(=O)NC(=S)NC2=O)C(c2ccc([N+](=O)[O-])cc2)C1 (stereo unspecified) | 96.3 |
| N#CSCc1cccc(Nc2cc(=O)[nH]c(=O)[nH]2)c1 | > 100 |

System: NCI/ADR-RES ovarian
Assay: DTP human tumour cell line panel, 48 h

| SMILES | TGI [µM] |
| --- | --- |
| Cc1nc2cc(C(F)(F)F)ccc2[nH]c1=O | > 100 |
| Nc1ncnc2c1ncn2C(=O)NC12CC3CC(CC(C3)C1)C2 | > 100 |
| CSc1c(C(=O)Nc2ccc(C)cc2)c(N)[nH]c(=O)c1C#N | > 100 |
| C(=Nc1ccc(-c2nc3ccccc3s2)cc1)c1ccco1 | > 100 |
| CC(=O)/C(=C/n1c(=S)sc2ccccc21)C(=O)Nc1ccccc1C | > 100 |
| O=C1CC(c2ccc([N+](=O)[O-])cc2)C2(C(=O)NC(=S)NC2=O)C(c2ccc([N+](=O)[O-])cc2)C1 (stereo unspecified) | > 100 |
| N#CSCc1cccc(Nc2cc(=O)[nH]c(=O)[nH]2)c1 | > 100 |

System: SK-MEL-5 melanoma
Assay: DTP human tumour cell line panel, 48 h

| SMILES | TGI [µM] |
| --- | --- |
| Cc1nc2cc(C(F)(F)F)ccc2[nH]c1=O | > 100 |
| Nc1ncnc2c1ncn2C(=O)NC12CC3CC(CC(C3)C1)C2 | > 100 |
| CSc1c(C(=O)Nc2ccc(C)cc2)c(N)[nH]c(=O)c1C#N | > 100 |
| C(=Nc1ccc(-c2nc3ccccc3s2)cc1)c1ccco1 | > 100 |
| CC(=O)/C(=C/n1c(=S)sc2ccccc21)C(=O)Nc1ccccc1C | > 100 |
| O=C1CC(c2ccc([N+](=O)[O-])cc2)C2(C(=O)NC(=S)NC2=O)C(c2ccc([N+](=O)[O-])cc2)C1 (stereo unspecified) | 99.1 |
| N#CSCc1cccc(Nc2cc(=O)[nH]c(=O)[nH]2)c1 | 99.1 |

System: SN12C renal
Assay: DTP human tumour cell line panel, 48 h

| SMILES | TGI [µM] |
| --- | --- |
| Cc1nc2cc(C(F)(F)F)ccc2[nH]c1=O | > 100 |
| Nc1ncnc2c1ncn2C(=O)NC12CC3CC(CC(C3)C1)C2 | > 100 |
| CSc1c(C(=O)Nc2ccc(C)cc2)c(N)[nH]c(=O)c1C#N | > 100 |
| C(=Nc1ccc(-c2nc3ccccc3s2)cc1)c1ccco1 | > 100 |
| CC(=O)/C(=C/n1c(=S)sc2ccccc21)C(=O)Nc1ccccc1C | > 100 |
| O=C1CC(c2ccc([N+](=O)[O-])cc2)C2(C(=O)NC(=S)NC2=O)C(c2ccc([N+](=O)[O-])cc2)C1 (stereo unspecified) | 53.4 |
| N#CSCc1cccc(Nc2cc(=O)[nH]c(=O)[nH]2)c1 | > 100 |

System: RXF 393 renal
Assay: DTP human tumour cell line panel, 48 h

| SMILES | TGI [µM] |
| --- | --- |
| Cc1nc2cc(C(F)(F)F)ccc2[nH]c1=O | > 100 |
| Nc1ncnc2c1ncn2C(=O)NC12CC3CC(CC(C3)C1)C2 | > 100 |
| CSc1c(C(=O)Nc2ccc(C)cc2)c(N)[nH]c(=O)c1C#N | > 100 |
| C(=Nc1ccc(-c2nc3ccccc3s2)cc1)c1ccco1 | > 100 |
| CC(=O)/C(=C/n1c(=S)sc2ccccc21)C(=O)Nc1ccccc1C | > 100 |
| N#CSCc1cccc(Nc2cc(=O)[nH]c(=O)[nH]2)c1 | > 100 |

System: SF-539 CNS
Assay: DTP human tumour cell line panel, 48 h

| SMILES | TGI [µM] |
| --- | --- |
| Cc1nc2cc(C(F)(F)F)ccc2[nH]c1=O | > 100 |
| Nc1ncnc2c1ncn2C(=O)NC12CC3CC(CC(C3)C1)C2 | > 100 |
| CSc1c(C(=O)Nc2ccc(C)cc2)c(N)[nH]c(=O)c1C#N | > 100 |
| C(=Nc1ccc(-c2nc3ccccc3s2)cc1)c1ccco1 | > 100 |
| CC(=O)/C(=C/n1c(=S)sc2ccccc21)C(=O)Nc1ccccc1C | > 100 |
| O=C1CC(c2ccc([N+](=O)[O-])cc2)C2(C(=O)NC(=S)NC2=O)C(c2ccc([N+](=O)[O-])cc2)C1 (stereo unspecified) | > 100 |
| N#CSCc1cccc(Nc2cc(=O)[nH]c(=O)[nH]2)c1 | 98.6 |

System: LOX IMVI melanoma
Assay: DTP human tumour cell line panel, 48 h

| SMILES | TGI [µM] |
| --- | --- |
| Cc1nc2cc(C(F)(F)F)ccc2[nH]c1=O | > 100 |
| Nc1ncnc2c1ncn2C(=O)NC12CC3CC(CC(C3)C1)C2 | > 100 |
| CSc1c(C(=O)Nc2ccc(C)cc2)c(N)[nH]c(=O)c1C#N | > 100 |
| C(=Nc1ccc(-c2nc3ccccc3s2)cc1)c1ccco1 | > 100 |
| CC(=O)/C(=C/n1c(=S)sc2ccccc21)C(=O)Nc1ccccc1C | > 100 |
| O=C1CC(c2ccc([N+](=O)[O-])cc2)C2(C(=O)NC(=S)NC2=O)C(c2ccc([N+](=O)[O-])cc2)C1 (stereo unspecified) | 39.4 |
| N#CSCc1cccc(Nc2cc(=O)[nH]c(=O)[nH]2)c1 | > 100 |

System: SK-MEL-28 melanoma
Assay: DTP human tumour cell line panel, 48 h

| SMILES | TGI [µM] |
| --- | --- |
| Cc1nc2cc(C(F)(F)F)ccc2[nH]c1=O | > 100 |
| Nc1ncnc2c1ncn2C(=O)NC12CC3CC(CC(C3)C1)C2 | > 100 |
| CSc1c(C(=O)Nc2ccc(C)cc2)c(N)[nH]c(=O)c1C#N | > 100 |
| C(=Nc1ccc(-c2nc3ccccc3s2)cc1)c1ccco1 | > 100 |
| CC(=O)/C(=C/n1c(=S)sc2ccccc21)C(=O)Nc1ccccc1C | > 100 |
| O=C1CC(c2ccc([N+](=O)[O-])cc2)C2(C(=O)NC(=S)NC2=O)C(c2ccc([N+](=O)[O-])cc2)C1 (stereo unspecified) | > 100 |
| N#CSCc1cccc(Nc2cc(=O)[nH]c(=O)[nH]2)c1 | > 100 |

System: HL-60(TB) leukemia
Assay: DTP human tumour cell line panel, 48 h

| SMILES | TGI [µM] |
| --- | --- |
| Cc1nc2cc(C(F)(F)F)ccc2[nH]c1=O | > 100 |
| Nc1ncnc2c1ncn2C(=O)NC12CC3CC(CC(C3)C1)C2 | > 100 |
| CSc1c(C(=O)Nc2ccc(C)cc2)c(N)[nH]c(=O)c1C#N | > 100 |
| CC(=O)/C(=C/n1c(=S)sc2ccccc21)C(=O)Nc1ccccc1C | > 100 |
| O=C1CC(c2ccc([N+](=O)[O-])cc2)C2(C(=O)NC(=S)NC2=O)C(c2ccc([N+](=O)[O-])cc2)C1 (stereo unspecified) | > 100 |

System: NCI-H226 lung
Assay: DTP human tumour cell line panel, 48 h

| SMILES | TGI [µM] |
| --- | --- |
| Cc1nc2cc(C(F)(F)F)ccc2[nH]c1=O | > 100 |
| Nc1ncnc2c1ncn2C(=O)NC12CC3CC(CC(C3)C1)C2 | > 100 |
| CSc1c(C(=O)Nc2ccc(C)cc2)c(N)[nH]c(=O)c1C#N | > 100 |
| C(=Nc1ccc(-c2nc3ccccc3s2)cc1)c1ccco1 | > 100 |
| CC(=O)/C(=C/n1c(=S)sc2ccccc21)C(=O)Nc1ccccc1C | > 100 |
| O=C1CC(c2ccc([N+](=O)[O-])cc2)C2(C(=O)NC(=S)NC2=O)C(c2ccc([N+](=O)[O-])cc2)C1 (stereo unspecified) | 36.9 |
| N#CSCc1cccc(Nc2cc(=O)[nH]c(=O)[nH]2)c1 | > 100 |

System: EKVX NSCLC
Assay: DTP human tumour cell line panel, 48 h

| SMILES | TGI [µM] |
| --- | --- |
| Cc1nc2cc(C(F)(F)F)ccc2[nH]c1=O | > 100 |
| Nc1ncnc2c1ncn2C(=O)NC12CC3CC(CC(C3)C1)C2 | > 100 |
| CSc1c(C(=O)Nc2ccc(C)cc2)c(N)[nH]c(=O)c1C#N | > 100 |
| C(=Nc1ccc(-c2nc3ccccc3s2)cc1)c1ccco1 | > 100 |
| CC(=O)/C(=C/n1c(=S)sc2ccccc21)C(=O)Nc1ccccc1C | > 100 |
| O=C1CC(c2ccc([N+](=O)[O-])cc2)C2(C(=O)NC(=S)NC2=O)C(c2ccc([N+](=O)[O-])cc2)C1 (stereo unspecified) | 82.9 |
| N#CSCc1cccc(Nc2cc(=O)[nH]c(=O)[nH]2)c1 | > 100 |

System: CAKI-1 renal
Assay: DTP human tumour cell line panel, 48 h

| SMILES | TGI [µM] |
| --- | --- |
| Cc1nc2cc(C(F)(F)F)ccc2[nH]c1=O | > 100 |
| Nc1ncnc2c1ncn2C(=O)NC12CC3CC(CC(C3)C1)C2 | > 100 |
| CSc1c(C(=O)Nc2ccc(C)cc2)c(N)[nH]c(=O)c1C#N | > 100 |
| C(=Nc1ccc(-c2nc3ccccc3s2)cc1)c1ccco1 | > 100 |
| CC(=O)/C(=C/n1c(=S)sc2ccccc21)C(=O)Nc1ccccc1C | > 100 |
| N#CSCc1cccc(Nc2cc(=O)[nH]c(=O)[nH]2)c1 | > 100 |
